Measurements: patent US6515025B2, “Use of ethynyl alanine amino diol compounds to inhibit enzymatic conversion of angiotensinogen to angiotensin I” (Pharmacia Corporation, priority 1991, dated 2003)

System: salt-depleted, conscious marmosets
Experiment: Marmoset blood pressure reduction on intravenous administration
Assay type: in vivo, Marmoset monkeys (Callithrix jacchus)
Details: 100 micrograms/kg intravenously
Procedure: The blood pressure reducing activity of the renin inhibitor compound of Example 1 was determined in vivo in Marmoset monkeys using the following procedure. Common Marmoset monkeys (Callithrix jacchus, Charles River, both sexes, body weight ca. 400 g) were placed on a modified high protein low sodium diet (Purina, St. Louis, Mo.) for 1 week. 24 hours prior to the administration of test compound, Lasix (5 mg/kg, im) was given. On the day of the test, the animal was anesthetized with isoflurane, body weight recorded, and the left femoral artery and vein were catheterized. The animal was allowed to regain consciousness and the title compound of Example 1 (100 micrograms/kg) was administered intravenously in 0.1 mL/kg polyethylene glycol 400 at time zero. Mean arterial blood pressure (MABP) in mmHg was then recorded every ten minutes until 120 minutes.

C#CC[C@H](NC(=O)C(CC(=O)N(C)CCN(C)C)Cc1ccccc1)C(=O)NC(CC1CCCCC1)[C@@H](O)C(O)CC(C)C (relative stereo) [Example 1, N1-[1R*-[[[1S,1R*-(cyclohexylmethyl)-2S*,3R*-dihydroxy-5-methylhexyl]amino]carbonyl]-3-butynyl]-N4-[2-(dimethylamino)ethyl]-N4-methyl-2S*-(phenylmethyl)butanediamide]
MABP (10 min (n = 3)): 106 mmHg | MABP (20 min (n = 3)): 97 mmHg | MABP (30 min (n = 3)): 93 mmHg | MABP (40 min (n = 3)): 92 mmHg | MABP (50 min (n = 3)): 90 mmHg | MABP (60 min (n = 3)): 89 mmHg | MABP (70 min (n = 3)): 87 mmHg | MABP (80 min (n = 3)): 88 mmHg | MABP (90 min (n = 3)): 89 mmHg | MABP (100 min (n = 3)): 91 mmHg | MABP (110 min (n = 3)): 93 mmHg | MABP (120 min (n = 3)): 94 mmHg | MABP (time 0 min (n = 3)): 118 mmHg | effect on blood pressure (in words) (salt-depleted, conscious marmosets): lowers blood pressure
